Data reported in ChEMBL document CHEMBL3351224 (ACS Med Chem Lett, 2014).

Experiments:
[1] = target: T1, Cysteinyl leukotriene receptor 1 (Homo sapiens, UniProt Q9Y271); experiment: Antagonist activity at human CysLT1 receptor expressed in CHO cells assessed as inhibition of LTD4-inudced intracellular calcium influx preincubated for 30 mins before LTD4 addition by Fura2-AM assay; assay type: functional, cell-based
T1 sequence (Q9Y271 whole entry): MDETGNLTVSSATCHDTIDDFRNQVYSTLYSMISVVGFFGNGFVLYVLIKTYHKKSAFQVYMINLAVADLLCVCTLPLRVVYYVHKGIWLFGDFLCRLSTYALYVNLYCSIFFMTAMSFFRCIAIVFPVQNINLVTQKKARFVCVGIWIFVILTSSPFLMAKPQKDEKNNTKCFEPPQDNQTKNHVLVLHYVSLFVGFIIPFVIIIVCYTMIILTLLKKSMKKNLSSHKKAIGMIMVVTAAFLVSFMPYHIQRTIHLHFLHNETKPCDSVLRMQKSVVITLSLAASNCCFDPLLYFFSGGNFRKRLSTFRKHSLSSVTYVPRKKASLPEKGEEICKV

[2] = target: T2, Cysteinyl leukotriene receptor 2 (Homo sapiens, UniProt Q9NS75); experiment: Antagonist activity at human CysLT2 receptor expressed in HEK293 cells assessed as inhibition of LTD4-inudced intracellular calcium influx preincubated for 30 mins before LTD4 addition by Fura2-AM assay; assay type: functional, cell-based
T2 sequence (Q9NS75 whole entry): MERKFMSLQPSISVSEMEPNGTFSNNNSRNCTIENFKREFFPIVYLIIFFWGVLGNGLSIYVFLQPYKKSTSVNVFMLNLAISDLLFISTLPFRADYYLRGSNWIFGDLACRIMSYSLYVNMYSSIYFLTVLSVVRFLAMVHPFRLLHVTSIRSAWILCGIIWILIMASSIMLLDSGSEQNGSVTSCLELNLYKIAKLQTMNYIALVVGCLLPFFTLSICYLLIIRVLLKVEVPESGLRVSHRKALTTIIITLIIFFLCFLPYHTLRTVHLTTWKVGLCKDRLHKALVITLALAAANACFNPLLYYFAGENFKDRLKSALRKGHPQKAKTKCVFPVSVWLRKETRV

[3] = AUC in rat at 30 mg/kg, po; assay type: ADME, organism-based; design: dose 30 mg/kg, route oral; settings: plasma
[4] = Clearance in rat at 1 mg/kg, iv; assay type: ADME, organism-based; design: dose 1 mg/kg, route intravenous; settings: in vivo
[5] = Half life in rat at 1 mg/kg, iv; assay type: ADME, organism-based; design: dose 1 mg/kg, route intravenous; settings: in vivo
[6] = Oral bioavailability in rat at 30 mg/kg; assay type: ADME, organism-based; settings: in vivo
[7] = target: T3, Cysteinyl leukotriene receptor 2 (Homo sapiens) (UniProt Q9NS75); experiment: Antagonist activity at human CysLT2 receptor expressed in HEK293 cells assessed as inhibition of LTD4-inudced intracellular calcium influx preincubated at 10 uM for 30 mins before LTD4 addition by Fura2-AM assay; assay type: functional, cell-based
T3 sequence (whole entry): T2 sequence (Q9NS75 whole entry)

Compound	IC50 [1] [nM]	IC50 [2] [nM]	other results
O=C(O)CCCCN1CC(C(=O)O)Oc2c(NC(=O)c3ccc(OCCCCc4ccccc4)cc3)cccc21 (configuration not stated)	44	170	
O=C(O)CCCCC(=O)N1CC(C(=O)O)Oc2c(NC(=O)c3ccc(OCCCCc4ccccc4)cc3)cccc21 (configuration not stated)	12	890	
O=C(O)CCCN1CC(C(=O)O)Oc2c(NC(=O)c3ccc(OCCCOc4ccccc4)cc3)cccc21 (configuration not stated)	290	16	
O=C(Nc1cccc2c1OC(C(=O)O)CN2)c1ccc(OCCCCc2ccccc2)cc1 (configuration not stated)	54	4600	
O=C(O)CCCN1CC(C(=O)O)Oc2c(NC(=O)c3ccc(OCCCCc4ccccc4)cc3)cccc21 (configuration not stated)			AUC [3]: 1600 ng·h/mL; clearance [4]: 4.7 mL/min/kg; half-life [5]: 204 min; bioavailability [6]: 1.5%
O=C(Nc1ccc2c(c1)NCC(C(=O)O)O2)c1ccc(OCCCCc2ccccc2)cc1 (configuration not stated)	840		inhibition [7]: 25%
O=C(O)CCCN1CC(C(=O)O)Oc2c(NC(=O)c3ccc(OCCOc4ccccc4)cc3)cccc21 (configuration not stated)	3000	1500	
O=C(O)CCCC(=O)N1CC(C(=O)O)Oc2c(NC(=O)c3ccc(OCCCCc4ccccc4)cc3)cccc21 (configuration not stated)	< 1	1800	
O=C(Nc1ccc2c(c1)OC(C(=O)O)CN2)c1ccc(OCCCCc2ccccc2)cc1 (configuration not stated)	4600		inhibition [7]: 36%
CCCC(=O)N1CC(C(=O)O)Oc2c(NC(=O)c3ccc(OCCCCc4ccccc4)cc3)cccc21 (configuration not stated)	300	3700	
O=C(O)c1ccc(OCCCc2ccc(OCCCCOc3ccccc3)cc2)c(C(=O)NC2CCCC(C(=O)O)C2)c1 (configuration not stated)	> 2500	53	
O=C(O)CCCN1CC(C(=O)O)Oc2c(NC(=O)c3ccc(OCCCCCc4ccccc4)cc3)cccc21 (configuration not stated)	120	0.62	
O=C(O)CCCN1CC(C(=O)O)Oc2c(NC(=O)c3ccc(OCCCCOc4ccccc4)cc3)cccc21 (configuration not stated)	32	17	
O=C(O)CCCN1CC(C(=O)O)Oc2c(NC(=O)c3ccc(OCCCc4ccccc4)cc3)cccc21 (configuration not stated)	1300	68	
CCCCC/C=C\C\C=C/C=C/C=C/[C@@H](Sc1ccc(C(=O)O)cc1)[C@@H](O)CCCC(=O)O	440	300	
O=C(O)CCCCCN1CC(C(=O)O)Oc2c(NC(=O)c3ccc(OCCCCc4ccccc4)cc3)cccc21 (configuration not stated)	130	290	
CC(=O)N1CC(C(=O)O)Oc2c(NC(=O)c3ccc(OCCCCc4ccccc4)cc3)cccc21 (configuration not stated)	13	3600	
CCC(=O)N1CC(C(=O)O)Oc2c(NC(=O)c3ccc(OCCCCc4ccccc4)cc3)cccc21 (configuration not stated)	150	5200	
O=C(O)CCC(=O)N1CC(C(=O)O)Oc2c(NC(=O)c3ccc(OCCCCc4ccccc4)cc3)cccc21 (configuration not stated)	1.4	890	
CCN(CC)C(=O)/C=C(\C)c1ccc2oc(C(=O)c3ccc(C#N)cc3)c(NC(=O)/C(C#N)=C(/C)O)c2c1	9700	7700	
